Test results taken from ChEMBL document CHEMBL5727596, “Tetrahydroisoquinoline derivatives useful as inhibitors of diacylglyceride O-acyltransferase 2” (2020).

Biological target: T1, Diacylglycerol O-acyltransferase 2 (Homo sapiens, UniProt Q96PD7)
T1 sequence (Q96PD7 whole entry): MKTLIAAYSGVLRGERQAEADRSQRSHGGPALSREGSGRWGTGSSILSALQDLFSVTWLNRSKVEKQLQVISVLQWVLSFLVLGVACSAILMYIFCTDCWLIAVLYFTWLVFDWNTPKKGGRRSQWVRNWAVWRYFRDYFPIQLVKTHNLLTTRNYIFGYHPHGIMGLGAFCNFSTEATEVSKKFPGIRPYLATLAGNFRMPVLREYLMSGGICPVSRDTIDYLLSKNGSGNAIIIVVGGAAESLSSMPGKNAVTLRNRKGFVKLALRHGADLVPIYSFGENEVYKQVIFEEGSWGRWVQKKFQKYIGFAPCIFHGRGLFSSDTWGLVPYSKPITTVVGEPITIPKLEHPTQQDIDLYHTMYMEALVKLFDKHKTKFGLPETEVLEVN
Assay: Enzymatic Activity Assay: DGAT2 activity was determined by measuring the amount of enzymatic product triolein (1,2,3-Tri(cis-9-octadecenoyl)glycerol) using the membrane prep mentioned above. The assay was carried out in deep well 384 plates in a final volume of 40 μL at room temperature. The assay mixture contained the following: assay buffer (100 mM Tris.Cl, pH 7.0, 20 mM MgCl2, 5% ethanol), 25 μM of diolein, 10 μM of oleoyl-CoA and 10 ng/μL of DGAT2 membrane.

Row | Structure (SMILES) | IC50 [nM]
1 | COc1cccc(-c2ccc(CNC(=O)[C@H]3C[C@@H]3c3nc(C)no3)c3c2CCN(C(=O)C(C)(C)O)C3)c1 (relative stereo) | 723
2 | CCCCC(CC)CNC(=O)N1CCc2c(-c3cccc(OC)c3)ccc(CNC(=O)[C@@H]3C[C@H]3c3ccccc3)c2C1 (relative stereo) | 249
3 | Cc1noc([C@@H]2C[C@H]2C(=O)NCc2ccc(-c3cncc(C(C)(C)O)c3)c3c2CN(C(=O)NC(C)(C)C)CC3)n1 (relative stereo) | 512
4 | COc1cccc(-c2ccc(CNC(=O)[C@@H]3C[C@H]3c3ccccc3)c3c2CCN(C(=O)NC(C)C(C)C)C3)c1 (mixture of isomers) | 23.8
5 | COC(=O)c1cccc(-c2ccc(CNC(=O)C3CC3c3ccccc3)c3c2CCN(Cc2ccncc2)C3)c1 (mixture of isomers) | 2410
6 | CCCNC(=O)N1CCc2c(-c3cccc(OC)c3)ccc(CNC(=O)[C@@H]3C[C@H]3c3nc(C)no3)c2C1 (relative stereo) | 8.3
7 | COC(=O)c1cccc(-c2ccc(CNC(=O)C3CC3c3ccccc3)c3c2CCN(C(=O)c2ccccn2)C3)c1 (mixture of isomers) | 249
8 | COc1cccc(-c2ccc(CNC(=O)[C@@H]3C[C@H]3c3ccccc3)c3c2CCN(C(=O)NC2CC2)C3)c1 (mixture of isomers) | 22.6
9 | COC(=O)c1cccc(-c2ccc(CNC(=O)C3CC3c3ccccc3)c3c2CCN(Cc2cc(C)n(C4CC4)c2C)C3)c1 (mixture of isomers) | 2800
10 | Cc1noc([C@H]2C[C@@H]2C(=O)NCc2ccc(-c3cccc(C(F)(F)F)c3)c3c2CN(C(=O)NC(C)(C)C)CC3)n1 (relative stereo) | 5.8
